Laboratory results taken from patent US20180113115A1, “SCREENING ASSAYS BASED ON MAG AND/OR ABHD6 FOR SELECTING INSULIN SECRETION PROMOTING AGENT” (VAL-CHUM, LIMITED PARTNERSHIP, priority 2010, published 2018).
“Also recorded” adds a separate entry of the source.

Experiments:
[1] = tested on: β-cell; details: inhibition of β-cell plasma membrane DAG lipase activity; cited from earlier work
[2] = tested on: TRPV1-R; details: cited from earlier work
[3] = target: TRPV1-R (Homo sapiens, UniProt Q8NER1); details: both in vitro and in vivo; cited from earlier work
[4] = tested on: rat intact islets; test: GSIS in isolated intact rat islets; format: cell-based
Description: (§1) All procedures were approved by the Institutional Committee for the Protection of Animals at the Centre Hospitalier de l'Université de Montreal Research Center. Wistar rats or […] mice or CD1 mice (all male) from Charles River (St-Constant, QC, Canada) were anaesthetized with Somnotol® (MTC Pharmaceuticals, Canada) and sacrificed by exsanguination. Pancreatic islets were isolated by collagenase (type XI from Sigma) digestion of total pancreas (Gotoh et al.), followed by separation (centrifugation at 1040×g) on a Histopaque™ 1119, 1077 (Sigma) gradient. Isolated islets were handpicked and cultured overnight in a petri dish at 37° C. in a humidified atmosphere containing 5% CO2 in RPMI 1640 with sodium bicarbonate, supplemented with 10% fetal calf serum, 10 mM HEPES pH 7.4, 2 mM L-glutamine, 1 mM sodium pyruvate, 100 U/mL penicillin and 100 μg/mL streptomycin.
(§2) For insulin secretion from rat, mouse or human islets, batches of 10 islets were washed in KRBH containing 2.8 mM glucose and 0.5% defatted BSA, and pre-incubated for 45 min in KRBH containing 2.8 mM glucose, 0.5% defatted BSA and different pharmacological agents (at indicated concentrations) or DMSO. […] Total insulin contents and media insulin concentrations were determined by radioimmunoassay using human insulin standards (Linco Research, Mo.).

[5] = tested on: isolated CD1 mouse islets; test: GSIS in isolated CD1 mouse islets; format: cell-based; details: for GSIS: 20 μM WWL70 or 20 μM AMG9810 alone
Description: as §1
(§3) For insulin secretion from rat, mouse or human islets, batches of 10 islets were washed in KRBH containing 2.8 mM glucose and 0.5% defatted BSA, and pre-incubated for 45 min in KRBH containing 2.8 mM glucose, 0.5% defatted BSA and different pharmacological agents (at indicated concentrations) or DMSO. Islets were then incubated for either 45 min or 2 h in KRBH containing various glucose concentrations or 2.8 mM glucose plus 35 mM KCl, 0.5% defatted BSA in the presence or absence of drugs (at indicated concentrations) or vehicle (DMSO). At the end of the incubation, media were collected and insulin extracted from cells or islets in acid-ethanol (1.5% HCl, 75% ethanol). Total insulin contents and media insulin concentrations were determined by radioimmunoassay using human insulin standards (Linco Research, Mo.).

[6] = tested on: isolated C57Bl6 mouse islets; test: GSIS in isolated C57Bl6 mouse islets; format: cell-based; details: for GSIS: 20 μM WWL70 or 20 μM AMG9810 alone, 2.8 and 11.1 mM glucose
Description: as §1, §3

[7] = tested on: MAG lipase (MAGL); details: cited from earlier work
[8] = tested on: human intact islets; test: GSIS in human intact islets; format: cell-based; details: one donor; for GSIS: 20 μM WWL70 or 20 μM AMG9810 alone
Description: Human islets were obtained from the Human Islet Isolation Core of MDRC, following appropriate ethical guidelines. The donor was a […] without any known metabolic disease. Islets were hand-picked and cultured overnight before use. Both rodent and human islets were also treated with trypsin to disperse islet cells and then cultured overnight in RPMI complete medium. These overnight cultured dispersed islets cells were then used for examining the effect of various pharmacological agents.
as §3

[9] = tested on: ABHD12; details: cited from earlier work
[10] = tested on: CD1 mice; test: Oral glucose tolerance test (OGTT); format: in vivo, mouse; details: WWL70 10 mg/kg intraperitoneally 2 h prior to oral glucose 2 g/kg
Description: Normal CD1 mice were fasted for 4 h prior to the oral glucose tolerance test (OGTT). […] Control mice (6) were given only vehicle. After 2 h, all mice were given a oral gavage of glucose (2 g/kg of body weight), followed by blood collection from the tail vein at the indicated times. Blood glucose (glucometer; Accu-Check™, Roche Applied Science) and plasma insulin (ELISA) (insulin mouse ultrasensitive electroimmunoassay, ALPCO Diagnostics, Salem, N.H.) were measured.

[11] = tested on: INS832/13 cell membrane extracts; test: 1-OG (MAG) hydrolysis by cell membrane extracts, released oleic acid by HPLC; format: biochemical; details: 50 μM 1-oleoylglycerol, 1 h at 30° C.
Description: 8 μg of […] cell membrane extracts were incubated with 50 μM of MAG (1-oleoylglycerol) and the indicated inhibitors for 1 h at 30° C. Released oleic acid was measured by HPLC after Dole's extraction and derivatization with bromoacetaminophenone.

[12] = tested on: INS 832/13 cells; test: Insulin secretion measurement in INS 832/13 cells (static incubation); format: cell-based; details: for KCl-stimulated insulin secretion: 35 mM KCl; for KCl-stimulated insulin secretion / insulin secretion stimulated by leucine+glutamine: 1 mM glucose, 10 μM WWL70 or 10 μM AMG9810; for insulin secretion stimulated by leucine+glutamine: Gln+Leu 5 mM each; for glucose-stimulated insulin secretion (GSIS): increasing glucose (5 and 10 mM), 10 μM WWL70, 50 μM orlistat, 1 μM JZL184
Description: (§4) INS 832/13 cells (Hohmeir et al.) were cultured at 37° C. in a humidified atmosphere containing 5% CO2 in RPMI 1640 with sodium bicarbonate, supplemented with 10% (v/v) fetal calf serum (Wisent), 10 mM HEPES, pH 7.4, 2 mM L-glutamine, 1 mM sodium pyruvate and 50 μM β-mercaptoethanol (complete RPMI). Cells were grown to 80% confluence. Media were changed to RPMI 1640 containing 3 mM glucose supplemented as the complete RPMI 24 h prior to the experiments. Insulin secretion incubations were conducted in Krebs-Ringer bicarbonate buffer containing 10 mM HEPES, pH 7.4 (KRBH).
INS 832/13 cells were washed in KRBH containing 1 mM glucose and 0.5% defatted BSA (KRBH 1G/0.5% BSA) and pre-incubated for 45 min in KRBH 1G/0.5% BSA in presence of pharmacological agents (at indicated concentrations) or vehicle (DMSO). […] When examining the effect of 2-AG, it was added to cells at 0 to 1 μM concentration at 2 mM and 10 mM glucose. Insulin secretion from INS 832/13 cells was measured from either 45-min or 2-h static incubations in KRBH containing various glucose concentrations, 0.5% defatted BSA and pharmacological agents or vehicle, with or without 35 mM KCl or 0.3 mM palmitate, as specified.

[13] = tested on: dispersed rat islet cells; test: GSIS in dispersed rat islet cells; format: cell-based; details: 20 μM WWL70, 20 μM AMG9810 or combination
Description: as §1, with “streptomycin. […]” for “streptomycin.”
as §2

[14] = tested on: INS 832/13 cells; test: Effect of lipase inhibitors on [U-14C]-glucose incorporation into lipids; format: cell-based; details: for glucose incorporation into phospholipids / glucose incorporation into 1-monoacylglycerol (1-MAG) / glucose incorporation into 2-monoacylglycerol (2-MAG) / glucose incorporation into diacylglycerol (DAG) / glucose incorporation into triglycerides (TG) / release of [U14C]-free fatty acids (FFA): 1 and 10 mM [U14C]-glucose, 50 μM orlistat; for glucose incorporation into 1-monoacylglycerol (1-MAG) / glucose incorporation into 2-monoacylglycerol (2-MAG) / glucose incorporation into diacylglycerol (DAG) / glucose incorporation into triglycerides (TG): 10 μM WWL70, 1 μM JZL184; for release of [U14C]-free fatty acids (FFA): 1 μM JZL184
Description: as §4
INS 832/13 cells were incubated overnight at 11 mM [U-^14C]-glucose in RPMI medium in a CO2-incubator in order to pre-label all the lipids in the cells. Then the cells were washed in KRBH (1 mM [U-^14C]-glucose) and pre-incubated for 45 min in KRBH at 1 mM [U-^14C]-glucose to bring metabolism to basal level. After this, cells were further incubated for 2 h in KRBH at 1 and 10 mM [U-^14C]-glucose and the indicated inhibitors. […] Then the cells were washed rapidly and flash-frozen in liquid nitrogen and extracted for lipids. Lipids were separated by TLC and the associated radioactivity was quantified. Neutral lipids were separated on boric acid/silica gel-TLC, with two solvent systems, first petroleum ether: diethyl ether: acetic acid (70:30:1), followed by second solvent system up to half of the plates, chloroform: acetone: acetic acid (60:40:1). Phospholipids were separated with a solvent system, chloroform: methanol: water (65:25:4).

[15] = tested on: INS 832/13 cells; test: [1-14C]-arachidonic acid incorporation into 1-AG and 2-AG; format: cell-based
Description: FIG. 2A and FIG. 2B illustrate that glucose stimulates the incorporation of [1-^14C]-arachidonic acid into 1-AG and 2-AG in INS 832/13 cells. Incorporation of [1-^14C]-arachidonic acid (nmol/mg protein) is shown in function of various compounds. Results are shown for low (2 mM, 2G, white) and high (10 mM, 10G, dotted) glucose concentration. […] (n=6; *** p<0.001). Results are shown in nmol/mg protein for different cellular compounds (PL=phospholipids, 1-AG=1-monoarachidonylglycerol, 2-AG=2-monoarachidonylglycerol, NEFA=non-esterified fatty acids, 1,2-DAG=1,2-diacylglycerol, 1,3-DAG=1,3-diacylglycerol, TG=triacylglycerol).

[16] = tested on: rat islets; details: lipolysis inhibition by pan-lipase inhibitors; cited from earlier work
[17] = 20 μM AMG9810, with 20 μM WWL70

TRPV1-R (Homo sapiens, UniProt Q8NER1), sequence (Q8NER1 whole entry): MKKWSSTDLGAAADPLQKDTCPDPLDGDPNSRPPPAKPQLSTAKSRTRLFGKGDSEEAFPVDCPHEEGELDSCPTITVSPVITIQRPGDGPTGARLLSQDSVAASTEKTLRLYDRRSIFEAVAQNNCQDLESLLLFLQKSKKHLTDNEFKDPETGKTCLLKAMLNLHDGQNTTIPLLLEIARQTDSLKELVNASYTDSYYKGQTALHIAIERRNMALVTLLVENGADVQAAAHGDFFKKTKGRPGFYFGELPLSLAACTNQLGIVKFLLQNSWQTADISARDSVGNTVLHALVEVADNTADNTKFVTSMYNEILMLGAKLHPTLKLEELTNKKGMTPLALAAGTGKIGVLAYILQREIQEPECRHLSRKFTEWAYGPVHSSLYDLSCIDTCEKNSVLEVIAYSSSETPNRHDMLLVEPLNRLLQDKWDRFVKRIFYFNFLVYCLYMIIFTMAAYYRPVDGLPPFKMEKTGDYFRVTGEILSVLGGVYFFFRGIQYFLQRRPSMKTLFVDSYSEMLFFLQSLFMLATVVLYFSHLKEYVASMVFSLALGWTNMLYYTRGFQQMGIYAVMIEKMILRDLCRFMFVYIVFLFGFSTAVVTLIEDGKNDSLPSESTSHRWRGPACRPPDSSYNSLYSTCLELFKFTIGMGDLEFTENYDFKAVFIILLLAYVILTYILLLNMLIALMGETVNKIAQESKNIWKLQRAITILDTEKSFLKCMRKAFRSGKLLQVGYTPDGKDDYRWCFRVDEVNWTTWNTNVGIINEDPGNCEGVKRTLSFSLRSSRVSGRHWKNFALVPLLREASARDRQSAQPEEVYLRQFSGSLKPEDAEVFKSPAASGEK

O=C(NCCCCCCNC(=O)ON=C1CCCCC1)ON=C1CCCCC1 [RHC80267]
GSIS [1]: lowered GSIS

COc1cc(CNC(=O)CCCC/C=C/C(C)C)ccc1O [capsaicin]
insulin resistance ([2]; administration of capsaicin): decrease insulin resistance
plasma insulin levels ([2]; in vivo): elevates plasma insulin levels
insulin secretion and Ca2+ influx [3]: elevate insulin secretion and Ca^2+ influx

CN(Cc1cccc(-c2ccncc2)c1)C(=O)Oc1ccc(-c2ccc(C(N)=O)cc2)cc1 [WWL70]
GSIS ([4]; 20 μM WWL70): enhanced GSIS
GSIS [5]: enhanced GSIS
GSIS [6]: enhancement
effect on MAG lipase (MAGL) [7]: no effect
GSIS [8]: enhancement
effect on ABHD12 [9]: no effect
glycemia [10]: better controlled the glycemia
plasma insulin levels [10]: significantly elevated
1-OG hydrolysis activity (released oleic acid) [11]: inhibited the 1-OG hydrolysis activity
portion of GSIS amplified by palmitate ([12]; 10 μM WWL70, glucose + palmitate): not further enhanced
WWL70 concentration reaching near maximal enhancement of GSIS ([12]; 5 mM and 10 mM glucose): ~10 µM
KCl-stimulated insulin secretion [12]: Neither WWL70 nor AMG9810 had any effect
insulin secretion stimulated by leucine+glutamine [12]: enhanced
glucose-stimulated insulin secretion (GSIS) [12]: almost doubled the GSIS; also recorded: robust increase
GSIS [13]: enhancement
decrease of FFA release (fraction) ([14]; 10 μM WWL70): about ⅔
glucose incorporation into phospholipids ([14]; 10 μM WWL70): None of the lipase inhibitors had any significant effect
glucose incorporation into 1-monoacylglycerol (1-MAG) [14]: elevation
glucose incorporation into 2-monoacylglycerol (2-MAG) [14]: elevation
glucose incorporation into diacylglycerol (DAG) [14]: Neither of the inhibitors had any effect
glucose incorporation into triglycerides (TG) [14]: marginal effect

O=C(Oc1ccc([N+](=O)[O-])cc1)N1CCC(C(O)(c2ccc3c(c2)OCO3)c2ccc3c(c2)OCO3)CC1 [JZL184]
effect on MAG lipase (MAGL) [7]: specifically inhibits MAGL
glucose-stimulated insulin secretion (GSIS) [12]: no effect
release of [U14C]-free fatty acids (FFA) [14]: no effect
glucose incorporation into 1-monoacylglycerol (1-MAG) [14]: elevated
glucose incorporation into 2-monoacylglycerol (2-MAG) [14]: elevated
glucose incorporation into diacylglycerol (DAG) [14]: no effect
glucose incorporation into triglycerides (TG) [14]: no effect

CC(C)(C)c1ccc(/C=C/C(=O)Nc2ccc3c(c2)OCCO3)cc1 [AMG9810]
WWL70-enhanced GSIS ([4]; 20 μM WWL70 + 20 μM AMG9810): antagonized
WWL70-enhanced GSIS ([5]; 20 μM WWL70 + 20 μM AMG9810): antagonized
GSIS [5]: without significant effect on GSIS per se
GSIS inhibition by AMG9810 (WWL70-augmented) [6, 17]: inhibition of GSIS
GSIS [6]: without significant effect on GSIS per se
GSIS inhibition by AMG9810 (WWL70-augmented) [8, 17]: inhibition of GSIS
GSIS [8]: without significant effect on GSIS per se
WWL70-enhanced GSIS ([12]; 10 μM WWL70, AMG9810 at 10 μM, 1, 5, 10 mM glucose): completely antagonized the WWL70 stimulation
KCl-stimulated insulin secretion [12]: Neither WWL70 nor AMG9810 had any effect
GSIS, AMG9810 alone ([12]; 1, 5, 10 mM glucose, AMG9810 concentration series): dose-dependently reduces GSIS
insulin secretion stimulated by leucine+glutamine [12]: inhibited
GSIS [13]: inhibition of GSIS

CCCCCCCCCCC[C@@H](C[C@@H]1OC(=O)[C@H]1CCCCCC)OC(=O)[C@H](CC(C)C)NC=O [orlistat, tetrahydrolipstatin]
[1-14C]-arachidonic acid incorporation into 1-AG and 2-AG [15]: curtails
Ki [9]: < 100 nM
1-OG hydrolysis activity (released oleic acid) [11]: inhibited the 1-OG hydrolysis activity
insulin secretion ([12]; 100 μM orlistat, 2 and 10 mM glucose): curtails insulin secretion
glucose-stimulated insulin secretion (GSIS) [12]: strongly inhibited GSIS
release of [U14C]-free fatty acids (FFA) [14]: almost completely lowered this release
glucose incorporation into phospholipids ([14]; 10 μM WWL70): None of the lipase inhibitors had any significant effect
glucose incorporation into 1-monoacylglycerol (1-MAG) [14]: significantly lowered
glucose incorporation into 2-monoacylglycerol (2-MAG) [14]: no effect
glucose incorporation into diacylglycerol (DAG) [14]: Neither of the inhibitors had any effect
glucose incorporation into triglycerides (TG) [14]: TG accumulated
GSIS [16]: curtailed GSIS

Cc1cc(C)[nH]n1 [3,5-dimethylpyrazole]
GSIS [16]: curtailed GSIS
